In publication PMC5404542, “In Vitro and In Vivo Antifungal Profile of a Novel and Long-Acting Inhaled Azole, PC945, on Aspergillus fumigatus Infection” (Antimicrobial Agents and Chemotherapy, 2017):
pIC50, pKd, pKi: −log10 of the molar value. Converted amounts (≈) assume the structure as drawn. Where two headings read alike, the source gives them in different places. Marks after values point to notes of the source that are not given here.

How the values were obtained:
[1] = tested on: Trichophyton rubrum (ATCC 10218); test: MIC, CLSI; type: cell-based; conditions: ATCC10218, 1 strain
[2] = tested on: Penicillium citrinum (ATCC 9849); test: MIC, CLSI; type: cell-based; conditions: ATCC9849, 1 strain
[3] = tested on: Lichtheimia corymbifera (ATCC 7909); test: MIC, CLSI; type: cell-based; conditions: ATCC7909, 1 strain
[4] = tested on: Aspergillus niger (ATCC 1015); test: MIC, EUCAST; type: cell-based; conditions: ATCC1015, 1 strain, EUCAST, read-out: MIC
[5] = tested on: Penicillium chrysogenum (ATCC 9480); test: MIC, CLSI; type: cell-based; conditions: ATCC9480, 1 strain
AfCYP51B = target: T1, AfCYP51B (Aspergillus fumigatus, UniProt E9QY26); test: CYP51 reconstitution assay (sterol 14α-demethylase activity); type: biochemical; conditions: for pIC50: 0.5 μM AfCYP51B from membrane fraction of E. coli expression clones; for pKi: suggested from tight-binding inhibition, read-out: Ki.app, CYP51B
T1 construct: made in house; host or cells: Escherichia coli (membrane fraction)
T1 sequence (E9QY26 1-524): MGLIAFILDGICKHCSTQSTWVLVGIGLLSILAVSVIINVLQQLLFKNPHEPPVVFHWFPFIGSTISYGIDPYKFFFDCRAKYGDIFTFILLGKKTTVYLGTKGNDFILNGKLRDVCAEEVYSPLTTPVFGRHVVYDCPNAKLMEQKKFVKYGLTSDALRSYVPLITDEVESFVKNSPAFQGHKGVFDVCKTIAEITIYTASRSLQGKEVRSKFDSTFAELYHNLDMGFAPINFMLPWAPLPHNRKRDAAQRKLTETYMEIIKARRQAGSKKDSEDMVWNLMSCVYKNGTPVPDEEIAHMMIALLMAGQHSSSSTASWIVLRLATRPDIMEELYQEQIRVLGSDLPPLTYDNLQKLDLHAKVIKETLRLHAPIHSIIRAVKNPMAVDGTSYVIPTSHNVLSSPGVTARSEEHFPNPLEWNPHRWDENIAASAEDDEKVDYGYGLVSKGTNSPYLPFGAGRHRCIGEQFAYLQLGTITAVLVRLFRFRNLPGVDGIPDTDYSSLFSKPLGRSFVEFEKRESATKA
Method: A CYP51 reconstitution assay system was used to determine 50% inhibitory concentrations (IC50s) ([37]). Test agent was added to a mixture of 0.5 μM CYP51, 1 μM A. fumigatus cytochrome P450 reductase isoenzyme 1 (AfCPR1), 50 μM eburicol, 4% (wt/vol) 2-hydroxypropyl-β-cyclodextrin, 0.4 mg ml^−1 isocitrate dehydrogenase, 25 mM trisodium isocitrate, 50 mM NaCl, 5 mM MgCl2, and 40 mM 3-(N-morpholino) propanesulfonic acid (MOPS) (pH ∼7.2). The mixtures were then incubated at 37°C for 10 min prior to initiation with 4 mM β-NADPHNa4 followed by shaking for 20 min at 37°C. Sterol metabolites were recovered by extraction with ethyl acetate followed by derivatization with 0.1 ml N,O-bis(trimethylsilyl)trifluoroacetamide:trimethylchlorosilane (99:1) and 0.3 ml anhydrous pyridine prior to analysis by gas chromatography-mass spectrometry.

[6] = tested on: Aspergillus carbonarius (ATCC 8740); test: MIC, CLSI; type: cell-based; conditions: ATCC8740, 1 strain, CLSI, read-out: MIC
[7] = tested on: Mucor circinelloides (ATCC 8542); test: MIC, CLSI; type: cell-based; conditions: ATCC8542, 1 strain
[8] = tested on: Cladosporium argillaceum (ATCC 38013); test: MIC, CLSI; type: cell-based; conditions: Rhizocladosporium argillaceum, ATCC38013, 1 strain
[9] = tested on: 96 clinically isolated A. fumigatus strains; test: MIC against 96 clinically isolated strains (EUCAST, visual)
Method: Conidia were added across the plate to a final concentration of 1 × 10^5 ml^−1. […] Determination of antifungal activity against 50 A. fumigatus clinical isolates from St. Louis Hospital (Paris, France) was performed with 96-well plates, using the modified EUCAST method in the presence of 0.5% BSA as described above. Antifungal susceptibility testing of 46 A. fumigatus isolates (obtained from the NW England Mycology Reference Centre) was performed by Evotec UK Ltd. (Manchester, United Kingdom) according to EUCAST guidelines.

A. fumigatus = A. fumigatus sterol analysis by GC-MS; type: cell-based, Aspergillus fumigatus; conditions: 2 h
Method: A working suspension of A. fumigatus spores was prepared in filter-sterilized MOPS-RPMI 1640 (RPMI 1640 medium containing 2 mM L-glutamine, 2% glucose, and 0.165 M MOPS, buffered to pH 7 with NaOH) to a final concentration of 8 × 10^6 spores ml^-1. […] Samples for baseline determinations were collected by scraping, pelleted by centrifugation at 2,000 rpm for 5 min, and stored at -80°C. Test compounds or DMSO (50 μl) was added to the remaining dishes, which were subsequently gently rocked by hand to disperse the compounds. […] Samples were collected and processed as described above. […] These samples were prepared in the laboratory at Pulmocide Ltd. and sent to the laboratory at the Centre for Cytochrome P450 Biodiversity, Institute of Life Science, […] University Medical School, for experimentation. Nonsaponifiable lipids were extracted as previously reported ([29]) and were derivatized with 0.1 ml N,O-bis(trimethylsilyl)trifluoroacetamide:trimethylchlorosilane (99:1) and 0.3 ml anhydrous pyridine (2 h at 80°C) prior to analysis by gas chromatography-mass spectrometry ([38]). Sterol composition was calculated using peak areas from the gas chromatograms, and the mass fragmentation patterns compared to known standards were used to confirm sterol identity. The sterol contents of A. fumigatus (basal) and treated A. fumigatus (treated with either DMSO, posaconazole, or PC945) were determined.

AfCYP51A = AfCYP51A (Aspergillus fumigatus, UniProt Q4WNT5); test: A. fumigatus CYP51 binding assay (ligand titration, type II difference spectra); parameters: made in house
Method: A. fumigatus CYP51 binding properties were determined as described by Warrilow et al. ([35]). Test agents were titrated against 4 μM recombinant A. fumigatus CYP51A or CYP51B protein, and binding saturation curves were constructed from the change in the absorbance between the spectral peak and the trough. A rearrangement of the Morrison equation was used to determine the dissociation constant (Kd) values when ligand binding was tight ([36]).

[10] = 96 clinical isolates, determined visually
[11] = Aspergillus fumigatus, read-out: MIC, Geometric mean
[12] = Aspergillus fumigatus, read-out: MIC, Mode

AfCYP51A, sequence (Q4WNT5 whole entry): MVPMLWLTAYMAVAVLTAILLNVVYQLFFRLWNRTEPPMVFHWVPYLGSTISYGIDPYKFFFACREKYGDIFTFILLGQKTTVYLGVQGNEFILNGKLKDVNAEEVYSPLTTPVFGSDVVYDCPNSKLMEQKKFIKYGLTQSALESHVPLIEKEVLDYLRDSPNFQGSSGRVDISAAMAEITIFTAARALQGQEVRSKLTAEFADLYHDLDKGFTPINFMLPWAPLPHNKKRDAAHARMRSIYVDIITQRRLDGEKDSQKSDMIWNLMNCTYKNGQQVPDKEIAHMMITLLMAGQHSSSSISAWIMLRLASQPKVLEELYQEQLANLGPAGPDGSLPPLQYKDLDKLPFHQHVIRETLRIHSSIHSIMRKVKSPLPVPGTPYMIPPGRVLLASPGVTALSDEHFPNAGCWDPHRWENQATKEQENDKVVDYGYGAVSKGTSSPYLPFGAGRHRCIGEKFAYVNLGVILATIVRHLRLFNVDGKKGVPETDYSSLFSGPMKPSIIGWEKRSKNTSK

Structure (SMILES)	MIC [1]	MIC [2]	MIC [3]	MIC [4]	MIC [5]	pIC50 (AfCYP51B)	pKi (AfCYP51B)	MIC [6]	MIC [7]	MIC [8]	MIC50 ([9]; Aspergillus fumigatus)	MIC90 ([9]; Aspergillus fumigatus)	MIC [9, 11]	MIC [9, 12]	Sterol content in cells, Eburicol (A. fumigatus; 0.0001 μg/ml)	Sterol content in cells, Ergost-5,7-dienol (A. fumigatus; 0.0001 μg/ml)	Sterol content in cells, Ergosterol (A. fumigatus; 0.0001 μg/ml)	Sterol content in cells, Lanosterol (A. fumigatus; 0.0001 μg/ml)	Sterol content in cells, Eburicol (A. fumigatus; 0.001 μg/ml)	Sterol content in cells, Ergost-5,7-dienol (A. fumigatus; 0.001 μg/ml)	further results
Cc1cc(N2CCN(c3ccc(C(=O)Nc4ccc(F)cc4)cc3)CC2)ccc1OC[C@@H]1CO[C@@](Cn2cncn2)(c2ccc(F)cc2F)C1 [PC945, 4-[4-(4-{[(3R,5R)-5-(2,4-difluorophenyl)-5-(1H-1,2,4-triazol-1-ylmethyl)oxolan-3-yl]methoxy}-3-methylphenyl)piperazin-1-yl]-N-(4-fluorophenyl)benzamide]	0.031 µg/mL (≈ 0.0454 µM)	> 8 µg/mL	> 8 µg/mL	> 8 µg/mL	> 8 µg/mL	6.66	> 9.00	4 µg/mL (≈ 5.86 µM)	> 8 µg/mL	> 8 µg/mL	0.125 µg/mL (≈ 0.183 µM)	1 µg/mL (≈ 1.46 µM)	0.17 µg/mL (≈ 0.249 µM)	0.125 µg/mL (≈ 0.183 µM)	0%	4.1%	95.9%	0%	2.7%	2.5%	concentration up to which growth was not completely inhibited ([9]; 5 of the 13 posaconazole-resistant isolates, NW Mycology Centre): > 8 µg/mL; fold more potent than voriconazole, based on the geometric mean ([9]; 96 clinical isolates): 2.5 fold; MIC90 [9, 10]: 1 µg/mL (≈ 1.46 µM); MIC, Geometric mean [9, 10]: 0.17* μg/ml; Sterol content in cells, Ergosterol (A. fumigatus; 0.001 μg/ml): 94.7%; Sterol content in cells, Lanosterol (A. fumigatus; 0.001 μg/ml): 0%; Sterol content in cells, Eburicol (A. fumigatus; 0.01 μg/ml): 6.5%; Sterol content in cells, Ergost-5,7-dienol (A. fumigatus; 0.01 μg/ml): 3.3%; Sterol content in cells, Ergosterol (A. fumigatus; 0.01 μg/ml): 86.7%; Sterol content in cells, Lanosterol (A. fumigatus; 0.01 μg/ml): 3.6%; Sterol content in cells, Eburicol (A. fumigatus; 0.1 μg/ml): 13.2%; Sterol content in cells, Ergost-5,7-dienol (A. fumigatus; 0.1 μg/ml): 0%; Sterol content in cells, Ergosterol (A. fumigatus; 0.1 μg/ml): 80.6%; Sterol content in cells, Lanosterol (A. fumigatus; 0.1 μg/ml): 6.2%; Sterol content in cells, Eburicol (A. fumigatus; 1 μg/ml): 19.3%; Sterol content in cells, Ergost-5,7-dienol (A. fumigatus; 1 μg/ml): 0%; Sterol content in cells, Ergosterol (A. fumigatus; 1 μg/ml): 71.3%; Sterol content in cells, Lanosterol (A. fumigatus; 1 μg/ml): 9.4%; pKd (AfCYP51A): 6.30; difference spectra on titration against purified CYP51A (AfCYP51A): type II difference spectra
CC[C@@H]([C@H](C)O)n1ncn(-c2ccc(N3CCN(c4ccc(OC[C@@H]5CO[C@@](Cn6cncn6)(c6ccc(F)cc6F)C5)cc4)CC3)cc2)c1=O [Posaconazole, posaconazole]	0.031 µg/mL (≈ 0.0442 µM)	0.5 µg/mL (≈ 0.713 µM)	> 8 µg/mL	0.2 µg/mL (≈ 0.285 µM)	0.13 µg/mL (≈ 0.186 µM)	6.77	> 9.00	0.063 µg/mL (≈ 0.0899 µM)	> 8 µg/mL	0.25 µg/mL (≈ 0.357 µM)	0.063 µg/mL (≈ 0.0899 µM)	0.5 µg/mL (≈ 0.713 µM)	0.1 µg/mL (≈ 0.143 µM)	0.032 µg/mL (≈ 0.0457 µM)	2.2%	3.3%	94.5%	0%	5.9%	3.9%	MIC, Range [9, 10]: 0.016 to 2 µg/mL; MIC ([9]; Aspergillus fumigatus, ATCC204305, read-out: MIC, quality control strain): 0.25 µg/mL (≈ 0.357 µM); Sterol content in cells, Ergosterol (A. fumigatus; 0.001 μg/ml): 87.2%; Sterol content in cells, Lanosterol (A. fumigatus; 0.001 μg/ml): 3.0%; Sterol content in cells, Eburicol (A. fumigatus; 0.01 μg/ml): 18.3%; Sterol content in cells, Ergost-5,7-dienol (A. fumigatus; 0.01 μg/ml): 0%; Sterol content in cells, Ergosterol (A. fumigatus; 0.01 μg/ml): 74.7%; Sterol content in cells, Lanosterol (A. fumigatus; 0.01 μg/ml): 7.0%; Sterol content in cells, Eburicol (A. fumigatus; 0.1 μg/ml): 23.4%; Sterol content in cells, Ergost-5,7-dienol (A. fumigatus; 0.1 μg/ml): 0%; Sterol content in cells, Ergosterol (A. fumigatus; 0.1 μg/ml): 67.8%; Sterol content in cells, Lanosterol (A. fumigatus; 0.1 μg/ml): 8.8%; Sterol content in cells, Eburicol (A. fumigatus; 1 μg/ml): 23.8%; Sterol content in cells, Ergost-5,7-dienol (A. fumigatus; 1 μg/ml): 0%; Sterol content in cells, Ergosterol (A. fumigatus; 1 μg/ml): 67.4%; Sterol content in cells, Lanosterol (A. fumigatus; 1 μg/ml): 8.8%; pKd (AfCYP51A): 6.02
